Assays:
[1] = biological target: T1, IDO (Homo sapiens, UniProt P14902); test: LLE_IDO_ABS_DR (IDO assay)
[2] = biological target: T1, IDO; test: Kynurenine assay in Hela cells stimulated with IFN-γ to express IDO; format: cell-based; parameters: endogenous in cells; host or cells: HeLa (ATCC CCL-2), stimulated with human recombinant IFN-gamma; settings: 20 h, read-out: Hela Kyurenine (IC50)
Procedure: IFNg (R&D, 28-IF-100)—resuspend at 10 ug/mL in PBS with 0.1% BSA 30% TCA
Ehrlich reagent (2% w/v p-dimethylaminobenzaldehyde in glacial acetic acid)
Cell Titer 96 Aqueous Non-Radioactive Cell Proliferation Assay, MTS (Promega, Cat # G5430)
Cell Lines and Culture Conditions
Hela cancer cell lines were acquired from the American Type Culture Collection. Cells were maintained in phenol red free-RPMI1640 medium containing high glucose and L-glutamine (Invitrogen) supplemented with 10% fetal bovine serum (FBS; Invitrogen). Cell cultures were incubated at 37° C., 5% CO2, and 100% humidity.
Cell Treatment and Kynurenine Assay
Hela cells were seeded on 96-well plates (40,000 cells per well) and allowed to adhere for 5-6 hours. Cells were then treated with vehicle (DMSO) or with IDO inhibitor at a top dose of 30 μM (3-fold dilution all the way down to 1.5 nM). A final concentration of 100 ng/mL of human recombinant IFN-γ (R&D, 28-IF-100) was immediately added to the cells to stimulate IDO expression. Treated cells were then incubated for 20 hours at 37° C. At the end of the 20 h incubation, reactions were terminated by the addition of 30% TCA to each well. Plates were incubated for 30 minutes at 50° C. to hydrolyze N-formylkynurenine to kynurenine. Cells were centrifuged 10 minutes at 2400 rpm. 100 ul of supernatants were transferred to new 96 flat well plates and mixed with 100 ul Ehrlich reagent. The resulting solution was incubated 10 minutes at RT. Absorbance at 490 nm was read using Spectra Max 384 (Molecular Devices).

T1 sequence (P14902 whole entry): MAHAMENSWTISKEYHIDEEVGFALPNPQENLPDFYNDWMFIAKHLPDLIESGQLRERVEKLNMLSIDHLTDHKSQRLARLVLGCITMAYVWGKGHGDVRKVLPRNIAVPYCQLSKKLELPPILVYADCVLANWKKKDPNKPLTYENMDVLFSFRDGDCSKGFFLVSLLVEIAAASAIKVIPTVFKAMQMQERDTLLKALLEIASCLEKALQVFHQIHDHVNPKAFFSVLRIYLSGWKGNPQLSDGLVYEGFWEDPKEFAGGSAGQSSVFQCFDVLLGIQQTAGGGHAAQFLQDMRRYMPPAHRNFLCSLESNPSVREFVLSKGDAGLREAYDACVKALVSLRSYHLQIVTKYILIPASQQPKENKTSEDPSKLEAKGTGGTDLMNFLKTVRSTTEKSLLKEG

Row | SMILES | IC50 [1] | IC50 [2]
1 | COCCN(CCOC)c1ccc(-c2ccccc2-c2nnn[nH]2)cc1NC(=O)Nc1ccc(C)cc1 [Example 57, 1-(4-(bis(2-methoxyethyl)amino)-2′-(1H-tetrazol-5-yl)biphenyl-3-yl)-3-p-tolylurea] | 270 nM | 220 nM
2 | CN(c1ccc(-c2ccccc2-c2nnn[nH]2)cc1NC(=O)Nc1ccccc1Cl)C1CCCCC1 [Example 45, 1-(2-chlorophenyl)-3-(4-(cyclohexyl (methyl)amino)-2′-(1H-tetrazol-5-yl)biphenyl-3-yl)urea] | 60 nM | 10 nM
3 | Cc1ccc(NC(=O)Nc2cc(-c3ccccc3-c3nnn[nH]3)c(F)cc2N(CC(F)F)CC2CC2)cc1 [Example 223, 1-(4-((cyclopropylmethyl)(2,2-difluoroethyl)amino)-6-fluoro-2′-(1H-tetrazol-5-yl)biphenyl-3-yl)-3-p-tolylurea] | 420 nM | 160 nM
4 | COc1ccc(-c2cc(NC(=O)Nc3ccc(C)cc3)c(N(C)C3CCCCC3)cc2F)cc1C(=O)O [Example 220, 4′-(cyclohexyl(methyl)ami-no)-2′-fluoro-4-methoxy-5′-(3-p-tolylureido)biphenyl-3-carboxylic acid] | 1470 nM | 440 nM
5 | Cc1ccc(NC(=O)Nc2cc(-c3ccccc3-c3nnn[nH]3)ccc2N(CC(F)F)CC2CC2)cc1 [Example 60, 1-(4-((cyclopropylmethyl) (2,2-difluoroethyl)amino)-2′-(1H-tetrazol-5-yl)biphenyl-3-yl)-3-p-tolylurea] | 140 nM | 140 nM
6 | CN(c1ccc(-c2ccccc2-c2nnn[nH]2)cc1NC(=O)Nc1ccccc1F)C1CCCCC1 [Example 214, 1-(4-(cyclohexyl(methyl)amino)-2′-(1H-tetrazol-5-yl)biphenyl-3-yl)-3-(2-fluorophenyl)urea] | 2.36 nM | 1.07 nM
7 | Cc1ccc(NC(=O)Nc2cc(-c3ccccc3C(=O)O)c(F)cc2N(C)C2CCCCC2)cc1 [Example 221, 4′-(cyclohexyl(methyl)ami-no)-2′-fluoro-5′-(3-p-tolylureido)biphenyl-2-carboxylic acid] | 9.05 nM | 6.56 nM
8 | CN(c1ncc(-c2ccccc2-c2nnn[nH]2)cc1NC(=O)Nc1ccccc1F)C1CCCCC1 [Example 37, 1-(5-(2-(1H-Tetrazol-5-yl)phenyl)-2-(cyclohexyl(methyl)amino)pyridin-3-yl)-3-(2-fluorophenyl)urea] | 40 nM | 10 nM
9 | Cc1ccc(NC(=O)Nc2cc(-c3ccccc3-c3nnn[nH]3)ccc2NC2CCCCC2)cc1 [Example 46, 1-(4-(cyclohexylamino)-2′-(1H-tetrazol-5-yl)biphenyl-3-yl)-3-p-tolylurea] | 130 nM | 90 nM

Further molecules by falling IC50 [1], results first:

Row | IC50 [1] | IC50 [2] | SMILES
10 | 1270 nM | 200 nM | CN(c1ccc(-c2ccccc2-c2nnn[nH]2)cc1NC(=O)Nc1ccccc1C(F)(F)F)C1CCCCC1 [Example 212, 1-(4-(cyclohexyl(methyl)amino)-2′-(1H-tetrazol-5-yl)biphenyl-3-yl)-3-(2-(trifluoromethyl)phenyl)urea]
11 | 640 nM | 440 nM | Cc1ccc(NC(=O)Nc2cc(-c3ccccc3C(=O)O)c(F)cc2N(CC(F)F)CC2CC2)cc1 [Example 224, 4′-((cyclopropylmethyl)(2,2-difluoroethyl)amino)-2′-fluoro-5′-(3-p-tolylureido)biphenyl-2-carboxylic acid]
12 | 310 nM | 60 nM | Cc1ccc(NC(=O)Nc2cc(-c3ccccc3-c3nnn[nH]3)ccc2N(C)C2CCOCC2)cc1 [Example 50, 1-(4-(methyl(tetra-hydro-2H-pyran-4-yl)amino)-2′-(1H-tetrazol-5-yl)biphenyl-3-yl)-3-p-tolylurea]
13 | 3.45 nM | 0.772 nM | CCN(c1ccc(-c2ccccc2-c2nnn[nH]2)cc1NC(=O)Nc1ccccc1F)C1CCCCC1 [Example 53, 1-(4-(cyclohexyl (ethyl)amino)-2′-(1H-tetrazol-5-yl)biphenyl-3-yl)-3-(2-fluorophenyl) urea]
